In ChEMBL document CHEMBL5143647, “Design, synthesis and biological evaluation of novel pyridine derivatives as gut-selective NaPi2b inhibitors” (Bioorg Med Chem Lett, 2022):
Values after ≈ are worked out from the molar mass of the structure shown. Blank lines part the entries; values can stand above or below the compound they belong to. Active and inactive are the calls of the source. The calls are words filed in the database; no cut-off is given here.

What was measured:
[1] = Solubility in FaSSIF at pH 6.6 incubated for 25 degC for 2 hrs further incubated water bath at 35 degC for 22 hrs by HPLC analysis; format: physicochemical
[2] = Oral bioavailability in Sprague-Dawley rat at 10 mg/kg measured for 24 hrs by liquid chromatography-tandem mass spectrometry relative to control; format: ADME, organism-based; settings: in vivo
[3] = Solubility in FeSSIF at pH 4.9 incubated for 25 degC for 2 hrs further incubated water bath at 35 degC for 22 hrs by HPLC analysis; format: physicochemical
[4] = tested on: Rattus norvegicus; assay: In vivo inhibition of NaPi2b in Sprague-Dawley rat assessed as reduction in phosphate absorption at 10 mg/kg, po after 5 mins followed by NaH2PO4 containing 32P-phosphate solution treatment and measured after 15 to 30 mins by liquid scintillation counting method; format: functional, organism-based; settings: dose […], time 35.0 min
[5] = Drug excretion in Sprague-Dawley rat feces at 10 mg/kg, po measured for 24 hrs by liquid chromatography-tandem mass spectrometry relative to control; format: ADME, organism-based; settings: faeces, read-out: Drug excretion
[6] = Oral bioavailability in Sprague-Dawley rat at 11.9 mg/kg measured for 24 hrs by liquid chromatography-tandem mass spectrometry; format: ADME, organism-based; settings: in vivo
[7] = molecular target: T1, Sodium-dependent phosphate transport protein 2B (Homo sapiens) (UniProt O95436); assay: Inhibition of human NaPi2b at 1 uM relative to control
T1 sequence (whole entry): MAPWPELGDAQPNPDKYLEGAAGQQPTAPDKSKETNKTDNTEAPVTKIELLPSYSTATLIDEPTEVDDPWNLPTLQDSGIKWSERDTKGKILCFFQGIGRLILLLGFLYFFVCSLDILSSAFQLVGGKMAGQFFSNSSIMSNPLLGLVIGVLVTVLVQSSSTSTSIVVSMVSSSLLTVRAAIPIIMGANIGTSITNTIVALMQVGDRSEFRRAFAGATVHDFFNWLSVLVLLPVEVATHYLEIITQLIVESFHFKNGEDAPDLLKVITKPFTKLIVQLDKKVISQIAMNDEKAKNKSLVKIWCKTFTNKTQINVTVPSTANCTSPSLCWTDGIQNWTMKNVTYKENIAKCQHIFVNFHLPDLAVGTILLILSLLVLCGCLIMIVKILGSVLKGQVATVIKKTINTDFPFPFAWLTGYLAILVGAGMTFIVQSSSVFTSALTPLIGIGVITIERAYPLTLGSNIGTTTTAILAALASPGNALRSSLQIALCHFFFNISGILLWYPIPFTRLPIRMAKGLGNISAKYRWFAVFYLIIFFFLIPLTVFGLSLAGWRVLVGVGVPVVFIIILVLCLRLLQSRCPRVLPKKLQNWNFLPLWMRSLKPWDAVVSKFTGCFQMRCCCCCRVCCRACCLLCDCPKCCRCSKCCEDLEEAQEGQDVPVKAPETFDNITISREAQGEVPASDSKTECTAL

[8] = molecular target: T2, Sodium-dependent phosphate transport protein 2B (Homo sapiens, UniProt O95436); assay: Inhibition of human NaPi2b stably expressed in CHO-K1 cells assessed as reduction in H2[33P]O4 uptake incubated for 30 mins by liquid scintillation counting method; format: cell-based
T2 sequence (O95436 whole entry): T1 sequence (whole entry)

Compound: CCN([C@H]1CC[C@H](C(=O)NCCOCCOCCOCCO)CC1)S(=O)(=O)c1cccc(C(=O)Nc2ccc(N3CCCCC3)nc2C(=O)Nc2ccc(CCc3ccc(C(=O)O)cc3)cc2)c1
solubility at 24 h [1]: 0.0205 mg/mL (≈ 21.4 µM)
bioavailability [2]: 2.7%
solubility at 24 h [3]: 0.0159 mg/mL (≈ 16.6 µM)
inhibition [4]: Active
dose excreted at 24 h [5]: 99.1%

Compound: CCN([C@H]1CC[C@H](C(=O)O)CC1)S(=O)(=O)c1cccc(C(=O)Nc2ccc(N3CCCCC3)nc2C(=O)Nc2ccc(CCc3ccc(C(=O)NS(=O)(=O)NC)cc3)cc2)c1
bioavailability [6]: 10.4%

Compound: CCC(CC)N(CCN(C)C(=O)CCC(=O)O)Cc1cccc(C(=O)Nc2[nH]c3c(c2C(=O)Nc2ccc(CCc4ccc(C(=O)O)cc4)cc2)CCCC3)c1
inhibition [7]: 87%

Compound: CCC(CC)N(CCN(C)C(=O)CCC(=O)O)Cc1cccc(C(=O)Nc2ccc(N3CCOCC3)nc2C(=O)Nc2ccc(CCc3ccc(C(=O)O)cc3)cc2)c1
IC50 [8]: 0.205 µM

More lines, now with the values ahead:

IC50 [8]: 0.715 µM
Compound: CCC(CC)N(CCN(C)C(=O)CCC(=O)O)Cc1cccc(C(=O)Nc2ccc(N3CCCCC3)nc2C(=O)Nc2ccc(Oc3ccc(C(=O)O)cn3)cc2)c1

IC50 [8]: 0.162 µM
Compound: CCC(CC)N(CCN(C)C(=O)CCC(=O)O)Cc1cccc(C(=O)Nc2ccc(N3CCCCC3)nc2C(=O)Nc2ccc(Oc3ccc(C(=O)O)cc3)cc2)c1
